In the NIST ThermoML archive (doi:10.1016/j.jct.2006.08.009):

Assay: mn = molality of the nth substance listed, in mol/kg
Details: 350 kPa, Liquid; for apparent molar heat capacity: Extra sensitive DSC

OC[C@@H](O)[C@@H](O)[C@@H](O)CO [SRS-1,2,3,4,5-pentanepentol] + O
Details	apparent molar heat capacity [J/K/mol]	mass density [kg/m3]
318.15 K, m1 = 0.5092	–	1013.36
318.15 K, m1 = 0.9969	–	1033.3
318.15 K, m1 = 1.998	–	1069.71
318.15 K, m1 = 3.177	–	1102.66
323.15 K, m1 = 0.0196	412.3	–
323.15 K, m1 = 0.0506	405.8	–
323.15 K, m1 = 0.1042	408.7	–
323.15 K, m1 = 0.2591	408.1	–
323.15 K, m1 = 0.5092	407.6	–
323.15 K, m1 = 0.9969	406.7	–
323.15 K, m1 = 1.998	403.3	–
323.15 K, m1 = 3.177	402.8	–
328.15 K, m1 = 0.0196	415.7	986.75
328.15 K, m1 = 0.0506	409.7	988.19
328.15 K, m1 = 0.1042	412.7	990.72
328.15 K, m1 = 0.2591	412.2	997.84
328.15 K, m1 = 0.5092	411.6	1008.63
328.15 K, m1 = 0.9969	410.7	1028.38
328.15 K, m1 = 1.998	407.3	1064.46
328.15 K, m1 = 3.177	406.7	1097.15
333.15 K, m1 = 0.0196	419.1	–
333.15 K, m1 = 0.0506	413.4	–
333.15 K, m1 = 0.1042	416.3	–
333.15 K, m1 = 0.2591	415.8	–
333.15 K, m1 = 0.5092	415.3	–
333.15 K, m1 = 0.9969	414.3	–
333.15 K, m1 = 1.998	410.9	–
333.15 K, m1 = 3.177	410.3	–
338.15 K, m1 = 0.0196	422.2	981.58
338.15 K, m1 = 0.0506	416.9	983.05
338.15 K, m1 = 0.1042	419.6	985.54
338.15 K, m1 = 0.2591	419.2	992.64
338.15 K, m1 = 0.5092	418.6	1003.33
338.15 K, m1 = 0.9969	417.6	1022.96
338.15 K, m1 = 1.998	414.3	1058.79
338.15 K, m1 = 3.177	413.6	1091.26
343.15 K, m1 = 0.0196	424.8	–
343.15 K, m1 = 0.0506	420	–
343.15 K, m1 = 0.1042	422.7	–
343.15 K, m1 = 0.2591	422.2	–
343.15 K, m1 = 0.5092	421.6	–
343.15 K, m1 = 0.9969	420.6	–
343.15 K, m1 = 1.998	417.3	–
343.15 K, m1 = 3.177	416.5	–
348.15 K, m1 = 0.0196	427.6	975.89
348.15 K, m1 = 0.0506	422.8	977.36
348.15 K, m1 = 0.1042	425.4	979.79
348.15 K, m1 = 0.2591	424.9	986.84
348.15 K, m1 = 0.5092	424.3	997.49
348.15 K, m1 = 0.9969	423.3	1017.01
348.15 K, m1 = 1.998	420.1	1052.65
348.15 K, m1 = 3.177	419.3	1084.97
353.15 K, m1 = 0.0196	429.6	–
353.15 K, m1 = 0.0506	424.8	–
353.15 K, m1 = 0.1042	427.8	–
353.15 K, m1 = 0.2591	427.3	–
353.15 K, m1 = 0.5092	426.7	–
353.15 K, m1 = 0.9969	425.7	–
353.15 K, m1 = 1.998	422.6	–
353.15 K, m1 = 3.177	421.8	–
358.15 K, m1 = 0.0196	431.8	969.65
358.15 K, m1 = 0.0506	426.7	971.12
358.15 K, m1 = 0.1042	430.1	973.52
358.15 K, m1 = 0.2591	429.5	980.54
358.15 K, m1 = 0.5092	428.9	991.18
358.15 K, m1 = 0.9969	427.9	1010.61
358.15 K, m1 = 1.998	424.9	1046.1
358.15 K, m1 = 3.177	424	1078.29
363.15 K, m1 = 0.0196	433.8	–
363.15 K, m1 = 0.0506	427.7	–
363.15 K, m1 = 0.1042	431.7	–
363.15 K, m1 = 0.2591	431.2	–
363.15 K, m1 = 0.5092	430.7	–
363.15 K, m1 = 0.9969	429.8	–
363.15 K, m1 = 1.998	426.9	–
363.15 K, m1 = 3.177	425.9	–
368.15 K, m1 = 0.0196	–	962.93
368.15 K, m1 = 0.0506	–	964.44
368.15 K, m1 = 0.1042	–	966.8
368.15 K, m1 = 0.2591	–	973.76
368.15 K, m1 = 0.5092	–	984.4
368.15 K, m1 = 0.9969	–	1003.76
368.15 K, m1 = 1.998	–	1039.13
368.15 K, m1 = 3.177	–	1071.22
